{
  "source": "ChEMBL document CHEMBL1201862",
  "about": "“PubChem BioAssay data set” (2004)",
  "assay_in_all_cases": "NCI-60 cell line screen, 48 h",
  "key": {"SR": {"tested_on": "SR"}, "SK-MEL-2": {"tested_on": "SK-MEL-2"}, "HOP-62": {"tested_on": "HOP-62"}, "SNB-19": {"tested_on": "SNB-19"}, "CAKI-1": {"tested_on": "CAKI-1"}, "EKVX": {"tested_on": "EKVX"}, "SF-295": {"tested_on": "SF-295"}, "SK-MEL-5": {"tested_on": "SK-MEL-5"}, "NCI-H522": {"tested_on": "NCI-H522"}, "HT-29": {"tested_on": "HT-29"}, "HCT-15": {"tested_on": "HCT-15"}, "MDA-MB-231": {"tested_on": "MDA-MB-231"}, "COLO 205": {"tested_on": "COLO 205"}, "U-251": {"tested_on": "U-251"}, "MOLT-4": {"tested_on": "MOLT-4"}, "OVCAR-5": {"tested_on": "OVCAR-5"}, "T47D": {"tested_on": "T47D"}, "K562": {"tested_on": "K562"}, "A549": {"tested_on": "A549"}, "NCI/ADR-RES": {"tested_on": "NCI/ADR-RES"}},
  "note": "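Values below derive from 48-hour exposures of cells grown in 96-well plates, with endpoints linearly interpolated between the two concentrations bracketing the appropriate inhibition level. GI50 is the concentration that inhibits growth by half.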 Calls of active or inactive are those of the source. Cut-off read from the data, not from the text of the source: active = GI50 up to about 1.1 µM and inactive = higher.",
  "data": [
    {"molecule": "O=C1OC2(c3ccccc31)c1cc(I)c(O)c(I)c1Oc1c2cc(I)c(O)c1I", "note": "[ERYTHROSINE]", "values": [
      {"measurement": "GI50", "setting": "SR", "value": "> 100 µM (inactive)"},
      {"measurement": "GI50", "setting": "SK-MEL-2", "value": "> 100 µM (inactive)"},
      {"measurement": "GI50", "setting": "HOP-62", "value": "> 100 µM (inactive)"},
      {"measurement": "GI50", "setting": "SNB-19", "value": "> 100 µM (inactive)"},
      {"measurement": "GI50", "setting": "CAKI-1", "value": "14.6 µM (inactive)"},
      {"measurement": "GI50", "setting": "EKVX", "value": "> 100 µM (inactive)"},
      {"measurement": "GI50", "setting": "SF-295", "value": "> 100 µM (inactive)"},
      {"measurement": "GI50", "setting": "SK-MEL-5", "value": "> 100 µM (inactive)"},
      {"measurement": "GI50", "setting": "NCI-H522", "value": "19.3 µM (inactive)"},
      {"measurement": "GI50", "setting": "HT-29", "value": "> 100 µM (inactive)"},
      {"measurement": "GI50", "setting": "HCT-15", "value": 31.3, "unit": "µM"},
      {"measurement": "GI50", "setting": "MDA-MB-231", "value": "> 100 µM (inactive)"},
      {"measurement": "GI50", "setting": "COLO 205", "value": "> 100 µM (inactive)"},
      {"measurement": "GI50", "setting": "U-251", "value": "92.3 µM (inactive)"},
      {"measurement": "GI50", "setting": "MOLT-4", "value": "> 100 µM (inactive)"},
      {"measurement": "GI50", "setting": "OVCAR-5", "value": "> 100 µM (inactive)"},
      {"measurement": "GI50", "setting": "T47D", "value": "> 100 µM (inactive)"},
      {"measurement": "GI50", "setting": "K562", "value": "> 100 µM (inactive)"},
      {"measurement": "GI50", "setting": "A549", "value": "> 100 µM (inactive)"},
      {"measurement": "GI50", "setting": "NCI/ADR-RES", "value": "> 100 µM (inactive)"}
    ]},
    {"molecule": "CC1(C)CCC(C)(C)c2cc(NC(=O)c3ccc(C(=O)O)cc3)ccc21", "note": "[TAMIBAROTENE]", "values": [
      {"measurement": "GI50", "setting": "SR", "value": "> 69.8 µM (inactive)"},
      {"measurement": "GI50", "setting": "SK-MEL-2", "value": "25.6 µM (inactive)"},
      {"measurement": "GI50", "setting": "HOP-62", "value": "23.6 µM (inactive)"},
      {"measurement": "GI50", "setting": "SNB-19", "value": "32.8 µM (inactive)"},
      {"measurement": "GI50", "setting": "CAKI-1", "value": "47.6 µM (inactive)"},
      {"measurement": "GI50", "setting": "EKVX", "value": "37.9 µM (inactive)"},
      {"measurement": "GI50", "setting": "SF-295", "value": "22.6 µM (inactive)"},
      {"measurement": "GI50", "setting": "SK-MEL-5", "value": "29.5 µM (inactive)"},
      {"measurement": "GI50", "setting": "NCI-H522", "value": "36.6 µM (inactive)"},
      {"measurement": "GI50", "setting": "HT-29", "value": "25.8 µM (inactive)"},
      {"measurement": "GI50", "setting": "HCT-15", "value": 26.9, "unit": "µM"},
      {"measurement": "GI50", "setting": "MDA-MB-231", "value": "> 49.1 µM (inactive)"},
      {"measurement": "GI50", "setting": "COLO 205", "value": "23.9 µM (inactive)"},
      {"measurement": "GI50", "setting": "U-251", "value": "24.7 µM (inactive)"},
      {"measurement": "GI50", "setting": "MOLT-4", "value": "30.7 µM (inactive)"},
      {"measurement": "GI50", "setting": "OVCAR-5", "value": "> 51.6 µM (inactive)"},
      {"measurement": "GI50", "setting": "T47D", "value": "33.7 µM (inactive)"},
      {"measurement": "GI50", "setting": "K562", "value": "54.7 µM (inactive)"},
      {"measurement": "GI50", "setting": "A549", "value": "27 µM (inactive)"},
      {"measurement": "GI50", "setting": "NCI/ADR-RES", "value": "31.9 µM (inactive)"}
    ]}
  ]
}
